Laboratory results from patent US5283183A, “Cyclic FR-900520 microbial biotransformation agent” (Merck & Co., Inc., priority 1992, dated 1994).
Values joined by “and” are separate entries in the source; they are usually repeats but may differ in a detail not shown here. Identical values can stand only once. “Also recorded” adds a separate entry of the source. Like-named read-outs stand apart in the source and are kept apart here.

Key:
[1] = reputed; EPO Publication No. 0184162; cited from earlier work
mouse T lymphocytes = assay: T-cell proliferation assay (ionomycin + PMA induced, tritiated thymidine uptake); type: cell-based, mouse (C57B1/6)
Experimental: The principle of this assay is to measure the proliferation of mouse T lymphocytes stimulated with the combination of ionomycin plus PMA.
Cells were pelleted by centrifugation at 1500 rpm for 8 minutes. Contaminating red cells were removed by treating the pellet with ammonium chloride lysing buffer (GIBCO) for 2 minutes at 4° C. Cold medium was added and cells were again centrifuged at 1500 rpm for 8 minutes. T lymphocytes were then isolated by separation of the cell suspension on nylon wool columns as follows: Nylon wool columns were prepared by packing approximately 4 grams of washed and dried nylon wool into 20 ml plastic syringes. The columns were sterilized by autoclaving at 250° F. for 30 minutes. Nylon wool columns were wetted with warm (37° C.) culture medium and rinsed with the same medium. Washed spleen cells resuspended in warm medium were slowly applied to the nylon wool. The columns were then incubated in an upright position at 37° C. for 1 hour. Non-adherent T lymphocytes were eluted from the columns with warm culture medium and the cell suspensions were spun as above.
The cell suspension was immediately distributed into 96 well flat-bottom microculture plates (Costar) at 200 μl/well. […] The proliferation of T lymphocytes was assessed by measurement of tritiated thymidine incorporation. After 44 hours of culturing, the cells were pulse-labelled with 2 μCi/well of tritiated thymidine (NEN, Cambridge, Mass.). After another 4 hours of incubation, cultures were harvested on glass fiber filters using a multiple sample harvester. Radioactivity of filter discs corresponding to individual wells was measured by standard liquid scintillation counting methods (Betacounter). Mean counts per minute of replicate wells were calculated and the results expressed as percent inhibition of tritiated thymidine uptake (proliferation) as follows: [formula]

Row | Structure (SMILES) | times more effective than cyclosporin [1] [times] | IC50 (mouse T lymphocytes; 5 additional experiments, individual values) | Inhibition of T-cell proliferation after addition of IL2 (mouse T lymphocytes; 50 units/ml recombinant IL2 at the initiation of culture) | IC50 (mouse T lymphocytes; Mus musculus, T-lymphocyte, based on 5 additional experiments, read-out: IC50, general range) [ng/mL] | IC50 (mouse T lymphocytes; Mus musculus, T-lymphocyte, mean of all 6 runs, ± SEM, read-out: mean IC50) [nM] | IC50 (mouse T lymphocytes; Mus musculus, T-lymphocyte, run of the Table, read-out: IC50) [ng/mL] | inhibition at 0.0008 µM (mouse T lymphocytes; Mus musculus, T-lymphocyte, Compound I 0.8 nM, read-out: Percent of Inhibition) [%] | inhibition at 0.0016 µM (mouse T lymphocytes; Mus musculus, T-lymphocyte, Compound I 1.6 nM, read-out: Percent of Inhibition) [%] | inhibition at 0.0031 µM (mouse T lymphocytes; Mus musculus, T-lymphocyte, Compound I 3.1 nM, read-out: Percent of Inhibition) [%] | inhibition at 0.0062 µM (mouse T lymphocytes; Mus musculus, T-lymphocyte, Compound I 6.2 nM, read-out: Percent of Inhibition) [%] | inhibition at 0.0125 µM (mouse T lymphocytes; Mus musculus, T-lymphocyte, Compound I 12.5 nM, read-out: Percent of Inhibition) [%] | inhibition at 0.025 µM (mouse T lymphocytes; Mus musculus, T-lymphocyte, Compound I 25.0 nM, read-out: Percent of Inhibition) [%] | inhibition at 0.05 µM (mouse T lymphocytes; Mus musculus, T-lymphocyte, Compound I 50.0 nM, read-out: Percent of Inhibition) [%] | immunosuppressant activity (mouse T lymphocytes; qualitative statement)
1 | C=CC[C@@H]1/C=C(\C)C[C@H](C)C[C@H](OC)[C@H]2O[C@@](O)(C(=O)C(=O)N3CCCC[C@H]3C(=O)O[C@H](/C(C)=C/[C@@H]3CC[C@@H](O)[C@H](OC)C3)[C@H](C)[C@@H](O)CC1=O)[C@H](C)C[C@@H]2OC [FK-506] | 100 | – | – | – | – | – | – | – | – | – | – | – | – | –
2 | CC[C@@H]1C=C2COC1(O)C[C@H](O)[C@@H](C)[C@@H](/C(C)=C/[C@@H]1CC[C@@H](O)[C@H](OC)C1)OC(=O)[C@@H]1CCCCN1C(=O)C(=O)[C@]1(O)O[C@H]([C@@H](OC)C[C@@H](C)C2)[C@@H](OC)C[C@H]1C [Compound I] | – | 1.92 ng/mL and 5.20 ng/mL and 4.80 ng/mL and 4.50 ng/mL | reversed | 1.57 to 5.2 | 4.36 ± 1.7 | 3.17 | 16 | 19 | 55 | 78 | 91 | 94 | 94 | positive inhibition of T-cell activation; also recorded: positive immunosuppressive activity
